Patent publication US20210214303A1, “SCORPION VENOM BENZOQUINONE DERIVATIVES AND USES THEREOF” (priority 2018, published 2021)
Converted amounts (≈) assume the structure as drawn. “Also recorded” adds a separate entry of the source.

Tests used:
[1] = system: Mycobacterium tuberculosis multi-drug resistant (MDR) strain; experiment: microbe, parasite or virus in culture; assay type: cell-based
[2] = system: Mycobacterium tuberculosis Multi-Drug-Resistance (MDR) CIBIN99 strain; experiment: experimental model of progressive pulmonary tuberculosis; design: species or system BALB/c mice; conditions: mouse, in vivo

| Compound | MIC [1] | condition of infected mice / overall effect [2] | reduction of pneumonia (automated histomorphometry, lung surface affected by pneumonia) [2] | tissue damage (pneumonia), histology [2] |
| --- | --- | --- | --- | --- |
| COC1=CC(=O)C(SC)=C(SC)C1=O [blue 1,4 benzoquinone, 5-methoxy-2,3-bis(methylthio)cyclohexa-2,5-diene-1,4-dione] | 4 µg/mL (≈ 17.4 µM) | effective in vivo; also recorded: improvement by not losing weight and not showing piloerection; also recorded: marked improvement in their condition | 50% | less pneumonia; also recorded: clear decrease in tissue damage; also recorded: twofold decrease |
| COC1=CC(=O)C(SC)=C(OC)C1=O [red 1,4 benzoquinone, 3,5-dimethoxy-2-(methylthio)cyclohexa-2,5-diene-1,4-dione] | > 160 µg/mL |  |  |  |
